Laboratory results taken from US12503452B2 (Curza Global, LLC, priority 2019, dated 2025).
Structures can show the parent of a compound that is named as a salt. Where two headings read alike, the source gives them in different places.

What was measured:
[1] = target: Rabbit Reticulocyte Lysate (eukaryotic protein synthesis); assay: Rabbit reticulocyte lysate luciferase assay (inhibition of eukaryotic protein synthesis); assay type: biochemical; conditions: read-out: Rabbit reticulocyte IC50 (μM/% inhib.)
How it was run: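 Compounds were tested in 8-point 2-fold dilution series for blocking luciferase synthesis in nuclease-treated rabbit reticulocyte lysate (30° C., 90 minutes). Luminescence read-out, corrected by no-RNA background, was expressed as % inhibition against water-only reactions.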

E. faecalis (Ef) = assay: Broth microdilution minimum inhibitory concentration (MIC); assay type: cell-based; conditions: for MIC: Enterococcus faecalis, read-out: Ef + bicarb MIC
How it was run: (§1)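 Two-fold compound series, 8 points in triplicate; medium CAMHB ± NaHCO3 (6.25 or 25 mM final) or ± 0–50% heat-inactivated human serum; inoculum 5×10^4 CFU/well; growth-method 0.5 McFarland suspensions; modified CLSI M07-A9.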

E. coli (Ec) = assay: as above; assay type: cell-based; conditions: Escherichia coli, read-out: E. coli + bicarb MIC
How it was run: as §1

S. aureus (Sa) = assay: as above; assay type: cell-based; conditions: Staphylococcus aureus, read-out: Sa + bicarb MIC
How it was run: as §1

P. aeruginosa (Pa) = assay: as above; assay type: cell-based; conditions: for MIC: Pseudomonas aeruginosa, read-out: Pa MIC + bicarb
How it was run: as §1

A. baumannii (Ab) = assay: as above; assay type: cell-based; conditions: Acinetobacter baumannii, read-out: Ab + bicarb MIC
How it was run: as §1

[2] = tested on: E. coli S30 extract (bacterial protein synthesis); assay: E. coli S30 extract coupled transcription-translation luciferase assay (inhibition of bacterial protein synthesis); assay type: biochemical; conditions: read-out: S30 IC50 (μM/% inhib.)
How it was run: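 Luminescent read-out of luciferase made from pBESTluc DNA by E. coli S30 extract after 1 h at 37 °C with compound in an 8-point 2-fold series. Background came from no-DNA reactions. Percent inhibition was calculated against water-only controls.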

[3] = class by IC50 or % inhibition @ 1 μM
[4] = E. faecalis, growth medium with sodium bicarbonate
[5] = E. coli, growth medium with sodium bicarbonate
[6] = S. aureus, growth medium with sodium bicarbonate
[7] = P. aeruginosa, growth medium with sodium bicarbonate
[8] = A. baumannii, growth medium with sodium bicarbonate
[9] = E. faecalis, growth medium supplemented with sodium bicarbonate
[10] = E. coli, growth medium supplemented with sodium bicarbonate
[11] = S. aureus, growth medium supplemented with sodium bicarbonate
[12] = P. aeruginosa, growth medium supplemented with sodium bicarbonate
[13] = A. baumannii, growth medium supplemented with sodium bicarbonate

C[C@@H]1CN(Cc2ccc(-n3ccc(NC(=O)N4CCN(C(=O)C(C)(C)N)CC4)nc3=O)cc2)CC[C@H]1N [Compound 210]
IC50 [1, 3]: > 1 µM | MIC (E. faecalis (Ef); [4]): < 8 µg/mL | MIC (E. coli (Ec); [5]): < 8 µg/mL | MIC (S. aureus (Sa); [6]): < 8 µg/mL | MIC (P. aeruginosa (Pa); [7]): > 32 µg/mL | MIC (A. baumannii (Ab); [8]): > 32 µg/mL | IC50 [2, 3]: < 0.5 µM

CC(Cc1ccc(-n2ccc(NC(=O)N3CCN(C(=O)C(C)(C)N)CC3)nc2=O)cc1)N[C@@H]1CC[C@H](N)C1 (some centres unmarked) [Compound 172]
IC50 [1, 3]: > 1 µM | MIC (E. faecalis (Ef); [4]): < 8 µg/mL | MIC (E. coli (Ec); [5]): < 8 µg/mL | MIC (S. aureus (Sa); [6]): < 8 µg/mL | MIC (P. aeruginosa (Pa); [7]): > 32 µg/mL | MIC (A. baumannii (Ab); [8]): > 32 µg/mL | IC50 [2, 3]: < 0.5 µM

CC(Cc1ccc(-n2ccc(NC(=O)N3CCN(C(=O)C(C)(C)N)CC3)nc2=O)cc1)N1CC[C@@H](CN)C1 (some centres unmarked) [Compound 382]
IC50 ([1]; % inhibition @ 1 μM): > 1 µM | MIC (E. faecalis (Ef); [4]): < 8 µg/mL | MIC (E. coli (Ec); [5]): < 8 µg/mL | MIC (S. aureus (Sa); [6]): < 8 µg/mL | MIC (P. aeruginosa (Pa); [7]): 8 to 32 µg/mL | MIC (A. baumannii (Ab); [8]): > 32 µg/mL | IC50 ([2]; % inhibition @ 1 μM): < 0.5 µM

CC(C)(N)C(=O)N1CCN(C(=O)Nc2ccn(-c3ccc(CNC4CC(N)CC(O)C4)cc3)c(=O)n2)CC1 (centres unmarked) [Compound 342, hydrochloride salt]
IC50 [1, 3]: > 1 µM | MIC (E. faecalis (Ef)): > 32 µg/mL | MIC (E. coli (Ec)): 8 to 32 µg/mL | MIC (S. aureus (Sa)): > 32 µg/mL | MIC (P. aeruginosa (Pa)): > 32 µg/mL | MIC (A. baumannii (Ab)): > 32 µg/mL | IC50 [2, 3]: < 0.5 µM

CC(C)(N)C(=O)N1CCN(C(=O)Nc2ccn(-c3ccc(C[C@H](N)C(=O)N4CC(N)C4)cc3)c(=O)n2)CC1 [Compound 146]
IC50 [1, 3]: > 1 µM | MIC (E. faecalis (Ef); [9]): > 32 µg/mL | MIC (E. coli (Ec); [10]): > 32 µg/mL | MIC (S. aureus (Sa); [11]): > 32 µg/mL | MIC (P. aeruginosa (Pa); [12]): > 32 µg/mL | MIC (A. baumannii (Ab); [13]): > 32 µg/mL | IC50 [2, 3]: > 1 µM

CC(C)(N)C(=O)N1CCN(C(=O)Nc2ccn(-c3ccc(C[C@H](N)C(=O)NC4CNC4)cc3)c(=O)n2)CC1 [Compound 147]
IC50 [1, 3]: > 1 µM | MIC (E. faecalis (Ef); [9]): > 32 µg/mL | MIC (E. coli (Ec); [10]): > 32 µg/mL | MIC (S. aureus (Sa); [11]): > 32 µg/mL | MIC (P. aeruginosa (Pa); [12]): > 32 µg/mL | MIC (A. baumannii (Ab); [13]): > 32 µg/mL | IC50 [2, 3]: > 1 µM

CCN(Cc1ccc(-n2ccc(NC(=O)N3CCN(C(=O)C(C)(C)N)CC3)nc2=O)cc1)[C@H]1CC[C@H](N)[C@@H](OC)C1 [Compound 341, hydrochloride salt]
IC50 [1, 3]: > 1 µM | MIC (E. faecalis (Ef)): > 32 µg/mL | MIC (E. coli (Ec)): 8 to 32 µg/mL | MIC (S. aureus (Sa)): 8 to 32 µg/mL | MIC (P. aeruginosa (Pa)): > 32 µg/mL | MIC (A. baumannii (Ab)): > 32 µg/mL | IC50 [2, 3]: 0.5 to 1 µM

CC(Cc1ccc(-n2ccc(NC(=O)N3CCN(C(=O)C(C)(C)N)CC3)nc2=O)cc1)N1CC[C@H](CN)C1 (some centres unmarked) [Compound 170]
IC50 [1, 3]: > 1 µM | Ef + bicarb MIC (E. faecalis (Ef); [4]): + (An MIC value (μg/mL) that is 32 μg/mL or greater) | MIC (E. coli (Ec); [5]): < 8 µg/mL | MIC (S. aureus (Sa); [6]): 8 to 32 µg/mL | Pa MIC + bicarb (P. aeruginosa (Pa); [7]): ++ (An MIC value (μg/mL) that is 8 μg/mL or greater and less than 32 μg/mL) | MIC (A. baumannii (Ab); [8]): > 32 µg/mL | IC50 [2, 3]: < 0.5 µM

CC(Cc1ccc(-n2ccc(NC(=O)N3CCN(C(=O)C(C)(C)N)CC3)nc2=O)cc1)N(C)[C@H]1CC[C@@H](N)CC1 (some centres unmarked) [Compound 175]
IC50 [1, 3]: > 1 µM | MIC (E. faecalis (Ef); [4]): < 8 µg/mL | MIC (E. coli (Ec); [5]): < 8 µg/mL | MIC (S. aureus (Sa); [6]): < 8 µg/mL | Pa MIC + bicarb (P. aeruginosa (Pa); [7]): ++ (An MIC value (μg/mL) that is 8 μg/mL or greater and less than 32 μg/mL) | MIC (A. baumannii (Ab); [8]): > 32 µg/mL | IC50 [2, 3]: < 0.5 µM

C[C@](N)(CO)C(=O)N1CCN(C(=O)Nc2ccn(-c3ccc(CN(CC4CC4)C4CCC(N)CC4)cc3)c(=O)n2)CC1 (some centres unmarked) [Compound 277]
IC50 [1, 3]: > 1 µM | MIC (E. faecalis (Ef); [4]): < 8 µg/mL | MIC (E. coli (Ec); [5]): < 8 µg/mL | MIC (S. aureus (Sa); [6]): < 8 µg/mL | MIC (P. aeruginosa (Pa); [7]): > 32 µg/mL | MIC (A. baumannii (Ab); [8]): > 32 µg/mL | IC50 [2, 3]: < 0.5 µM

CC(C)(N)C(=O)N1CCN(C(=O)Nc2ccn(-c3ccc(CN4CCCC(N)CC4)c(F)c3)c(=O)n2)CC1 (centres unmarked) [Compound 334, hydrochloride salt]
IC50 [1, 3]: > 1 µM | MIC (E. faecalis (Ef)): > 32 µg/mL | MIC (E. coli (Ec)): < 8 µg/mL | MIC (S. aureus (Sa)): 8 to 32 µg/mL | MIC (P. aeruginosa (Pa)): > 32 µg/mL | MIC (A. baumannii (Ab)): > 32 µg/mL | IC50 [2, 3]: < 0.5 µM
